Assay results: patent US20250313560A1, “Novel bicyclic benzylamido pyridine derivatives as SOS1 inhibitors” (Boehringer Ingelheim International GmbH, priority 2024, published 2025)
Like-named read-outs stand apart in the source and are kept apart here.

Tests used:
SOS1 and KRAS G12D = SOS1 and KRAS G12D (Homo sapiens (Human), UniProt Q07889); assay: KRAS::SOS1 AlphaScreen binding assay (KRAS G12D); settings: average of at least two measurements
Method: (§1) Low IC50 values are indicative of high potency of the SOS1 inhibitor compound in this assay setting:
(§2) • GST-tagged SOS1 (564_1049_GST_TEV_ECO) produced in-house • 6xHis-Tev-K-RasG12D/G12C(1-169)Avi produced in-house • GDP (Sigma Cat No G7127) • AlphaLISA Glutathione Acceptor Beads (PerkinElmer, Cat No AL109) • AlphaScreen Streptavidin Donor Beads (PerkinElmer Cat No 6760002) • Assay plates: Proxiplate-384 PLUS, white (PerkinElmer, Cat No 6008289)
(§3) [formula] • KRAS::SOS1 GDP mix: • 7.5 nM (final assay concentration) K-RasG12C, 10 nM (final assay concentration) K-RasG12D, 10 μM (final assay concentration) GDP and 5 nM (final assay concentration) GST-SOS1 are mixed in assay buffer prior to use and kept at rt. Bead mix: • AlphaLISA Glutathione Acceptor Beads and AlphaScreen Streptavidin Donor Beads are mixed in the dark in assay buffer at a concentration of 10 μg/mL (final assay concentration) each prior to use and kept at rt.
(§4) Compounds are diluted to a final start concentration of 100 μM and are tested in duplicate. Assay-ready plates (ARPs) are generated using an Access Labcyte Workstation with a Labcyte Echo 550 or 555 acoustic dispenser. For compound a start concentration of 100 μM, 150 nL of compound solution is transferred per well in 11 concentrations in duplicate with serial 1:5 dilutions.
(§5) The assay is run using a fully automated robotic system in a darkened room below 100 Lux. 10 μL of KRAS::SOS1 GDP mix is added into columns 1-24 to the 150 nL of compound solution (final dilution in the assay 1:100, final DMSO concentration 1%).
(§6) After a 30 minute incubation time, 5 μL of bead mix is added into columns 1-23. Plates are kept at rt in a darkened incubator. After a further 60 minutes incubation, the signal is measured using a PerkinElmer Envision HTS Multilabel Reader using the AlphaScreen specifications from PerkinElmer. Each plate contains the following controls:
(§7) diluted DMSO+KRAS::SOS1 GDP mix+bead mix
(§8) diluted DMSO+KRAS::SOS1 GDP mix
(§9) Result calculation: IC50 values are calculated and analyzed using a 4 parametric logistic model.
(§10) Table 1: Inhibition values for KRAS G12C as well as for KRAS G12D. […] The value indicates an average value of at least two measurements.

SOS1 and KRAS G12C = SOS1 and KRAS G12C (Homo sapiens (Human), UniProt Q07889); assay: KRAS::SOS1 AlphaScreen binding assay (KRAS G12C); settings: average of at least two measurements
Chain of SOS1 and KRAS G12C (Q07889 564-1049, stated change not applied): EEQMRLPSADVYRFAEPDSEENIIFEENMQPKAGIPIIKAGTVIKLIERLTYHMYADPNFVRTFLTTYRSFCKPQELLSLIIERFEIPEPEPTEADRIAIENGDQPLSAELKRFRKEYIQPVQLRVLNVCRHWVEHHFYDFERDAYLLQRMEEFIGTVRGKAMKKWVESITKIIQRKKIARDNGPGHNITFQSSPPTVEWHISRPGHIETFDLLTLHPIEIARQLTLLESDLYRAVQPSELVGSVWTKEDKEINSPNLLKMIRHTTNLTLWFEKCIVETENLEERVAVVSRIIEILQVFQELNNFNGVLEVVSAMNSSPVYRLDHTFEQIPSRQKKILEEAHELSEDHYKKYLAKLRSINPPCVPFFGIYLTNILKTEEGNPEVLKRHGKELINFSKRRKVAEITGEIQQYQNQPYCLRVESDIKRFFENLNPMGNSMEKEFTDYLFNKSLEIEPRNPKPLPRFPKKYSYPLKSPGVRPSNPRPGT
Method: as §1, §2, §3, §4, §5, §6, §7, §8, §9, §10

[1] = test system: ERK phosphorylation in NCI-H358 SOS2 KO cells (KRAS G12C); assay: Erk phosphorylation assay; assay type: cell-based, human; settings: EGF stimulated, average of at least two measurements, read-out: pERK IC50
Method: Low IC50 values are indicative of high potency of the SOS1 inhibitor compounds in this assay setting.
ERK phosphorylation assays are performed using the following human cell line: • NCI-H358 SOS2 KO (Hofmann, Gmachl, Ramharter et al, Cancer Discov. 2021, 11(1):142-15): human lung cancer with a KRAS G12C mutation;
NCI-H358 SOS2 KO are seeded at 50000 cells per well in 60 μL of DMEM with 2% FBS, in Greiner TC 384 plates. The cells are incubated overnight in an incubator at 37° C. and 5% CO2 in a humidified atmosphere. 60 nL compound solution (10 mM DMSO stock solution) is then added using a Beckman Coulter Labcyte Echo 550 device. After 50 min incubation in the aforementioned incubator, 5 nl EGF are added to each well for a final concentration of approx. 8 ng/mL using a Beckman Coulter Labcyte Echo 550 device and cells are incubated for another 10-15 minutes before lysis. The medium is removed, and the cells are lysed by addition of 20 μL of 1.6-fold lysis buffer from the AlphaLISA SureFire Ultra pERK1/2 (Thr202/Tyr204) Assay Kit with added protease inhibitors. After 20 minutes of incubation at rt with shaking, 6 μL of each lysate sample is transferred to a 384-well Proxiplate and analyzed for pERK (Thr202/Tyr204) with the AlphaLISA SureFire Ultra pERK1/2 (Thr202/Tyr204) Assay Kit. 3 μL Acceptor Mix and 3 μL Donor Mix are added under subdued light and incubated for 2 h at rt in the dark, before the signal is measured on a Perkin Elmer Envision plate reader using 384 AlphaScreen settings for Proxiplates. Data are fitted by iterative calculation with variable hill slope. The sigmoidal curve slope is fitted using a default fitting curve to ascertain IC50 values.
Table 2: Erk Phosphorylation assay. The value indicates an average value of at least two measurements.

human hepatocytes = assay: Metabolic stability in human hepatocytes; settings: 1 μM test compound, 50% human serum, percentage of liver blood flow
P450 3A4 = P450 3A4 (Homo sapiens (Human), UniProt P08684); assay: Cytochrome P450 isoenzyme inhibition assay (P450 3A4, midazolam); assay type: in vitro ADME; settings: human liver microsomes, Midazolam as substrate; read-out: CYP3A4 inhibition IC50
Chain of P450 3A4 (P08684 whole entry): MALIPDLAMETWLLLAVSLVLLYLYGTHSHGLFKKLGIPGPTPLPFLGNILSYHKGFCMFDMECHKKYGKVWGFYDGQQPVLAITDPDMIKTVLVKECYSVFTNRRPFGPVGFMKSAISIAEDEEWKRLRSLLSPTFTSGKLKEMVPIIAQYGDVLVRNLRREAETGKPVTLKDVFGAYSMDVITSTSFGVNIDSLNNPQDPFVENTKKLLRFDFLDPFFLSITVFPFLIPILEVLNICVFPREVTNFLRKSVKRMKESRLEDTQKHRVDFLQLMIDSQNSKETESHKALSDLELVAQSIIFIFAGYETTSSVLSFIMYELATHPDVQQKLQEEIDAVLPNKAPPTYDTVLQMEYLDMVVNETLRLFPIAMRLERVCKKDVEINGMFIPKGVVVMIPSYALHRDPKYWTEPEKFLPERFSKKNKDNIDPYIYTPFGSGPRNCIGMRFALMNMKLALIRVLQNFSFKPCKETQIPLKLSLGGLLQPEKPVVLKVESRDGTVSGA
Method: For the following cytochrome P450 isoenzymes, these substrates and metabolic reactions are monitored: P450 3A4: hydroxylation of Midazolam (MDZ).
The final incubation volume contains TRIS buffer (0.1 M), MgCl2 (5 mM), a certain concentration of human liver microsomes dependent on the P450 isoenzyme measured (P450 3A4: 0.1 mg/ml) and a certain concentration of the individual substrate for each isoenzyme (P450 3A4: Midazolam 5 μM).
The effect of the test compound is determined at five different concentrations in duplicate (e.g. highest concentration 50 μM with subsequent serial 1:4 dilutions) or without test compound (high control). Following a short preincubation period, reactions are started with the cofactor (NADPH, 1 mM) and stopped by cooling the incubation down to 8° C. and subsequently by addition of one volume of ACN. An internal standard solution—usually the stable isotope of the formed metabolite—is added after quenching of incubations. Peak area analyte (=metabolite formed) and internal standard is determined by LC-MS/MS. The resulting peak area ratio analyte to internal standard in these incubations is compared to a control activity containing no test compound. Within each of the assay runs, the IC50 of a positive control inhibitor dependent on the P450 isoenzyme measured (P450 3A4: ketoconazole) is determined. The assay results are plotted against compound concentrations to calculated IC50 values (half maximal inhibitory concentrations) for inhibitory compounds utilizing Software IDBS E-WorkBook.
Table 4: Inhibition of P450 isoenzyme 3A^4.

CYP3A4 = CYP3A4 (Homo sapiens (Human), UniProt P08684); assay: Mechanism-based inhibition of CYP3A4 assay (MBI 3A4); assay type: in vitro ADME; settings: human liver microsomes, midazolam substrate, hydroxy-midazolam formation after 30 min preincubation relative to 0 min; for inhibition at 30 min: human, probe midazolam 15 μM (hydroxy-midazolam formation), read-out: MBI inhibition % ctrl. [%] with MDZ
Chain of CYP3A4 (P08684 whole entry): as above
Method: Mechanism-Based Inhibition of CYP3A4 assay (MBI 3A4): The mechanism-based inhibition towards CYP3A4 is assayed in human liver microsomes with midazolam as substrate. The test compounds and water control (wells w/o test compound) are preincubated in presence of NADPH (1 mM) with human liver microsomes (0.2 mg/mL) at a concentration of 0, 5 and 25 μM for 0, 10 and 30 min. After preincubation, the incubate is diluted 1:10 (to 0.02 mg/mL) and the substrate midazolam (15 μM) is added for the main incubation (10 min). The main incubation is quenched with ACN and the formation of hydroxy-midazolam is quantified via LC/MS-MS. The formation of hydroxy-midazolam from the 30 min preincubation relative to the formation from the 0 min preincubation is used as a readout. Values of less than 100% mean that the substrate midazolam is metabolized to a lower extent upon 30 min preincubation compared to 0 min preincubation. In general, low effects upon 30 min preincubation are desired (corresponding to values close to 100%/not different to the values determined with water control).
Table 5: Mechanism-based inhibition of P450 isoenzyme 3A4 with midazolam as substrate.

[2] = Homo sapiens, NCI-H358, NCI-H358 SOS2 KO cells

Chain of SOS1 and KRAS G12D (Q07889 564-1049, stated change not applied): as the sequence (Q07889 564-1049, stated change not applied) above

Row | SMILES | IC50 (SOS1 and KRAS G12D) | IC50 (SOS1 and KRAS G12C) | IC50 [1, 2] | Hepatic clearance - QH[%] in human hepatocytes (human hepatocytes) | IC50 (P450 3A4) | inhibition at 30 min (CYP3A4) | IC50 ([1]; NCI-H358 SOS2 KO cells) | MBI inhibition % ctrl. [%] with MDZ (CYP3A4)
1 | C[C@@H](NC(=O)c1cc(N2CCC(N3CC[C@](C)(O)C3)CC2)c2ncnn2c1)c1cccc(C(F)F)c1F [Example E4] | 70 nM | 82 nM | 336 nM | 20% | > 50 µM | 99% | – | –
2 | Cc1nnc2c(N3CCC4(CCCN4C)CC3)cc(C(=O)N[C@H](C)c3cccc(C(F)(F)F)c3F)cn12 [Example E79] | 14 nM | 20 nM | 106 nM | 8% | > 50 µM | 90% | – | –
3 | C[C@@H](NC(=O)c1cc(C2=CCC(N3CCC[C@H](O)C3)CC2)c2ncnn2c1)c1cccc(C(F)F)c1F (stereo partly drawn) [Example E63] | 27 nM | 31 nM | 89 nM | 23% | > 50 µM | 94% | – | –
4 | C[C@@H](NC(=O)c1cc([C@H]2CC[C@H](N3CCC[C@@H](O)C3)CC2)c2ncnn2c1)c1cccc(C(F)F)c1F [Example E58] | 32 nM | 32 nM | 122 nM | 15% | > 50 µM | 96% | – | –
5 | C[C@@H](NC(=O)c1cc(N2CCC(O)(C3CCCN3)CC2)c2ncnn2c1)c1cccc(C(F)F)c1F (single isomer, unassigned) [Example E38b] | 41 nM | 59 nM | – | 11% | > 50 µM | – | 217 nM | 86%
6 | C[C@@H](NC(=O)c1cc(N2CCC(N3CC[C@@](C)(O)C3)CC2)c2ncnn2c1)c1cccc(C(F)F)c1F [Example E5] | 57 nM | 65 nM | 324 nM | 16% | > 50 µM | 103% | – | –
7 | C[C@@H](NC(=O)c1cc(N2CCC(N3CC4CC4(CO)C3)CC2)c2ncnn2c1)c1cccc(C(F)F)c1F (single isomer, unassigned) [Example cis-E21a] | 61 nM | 81 nM | 216 nM | 25% | > 50 µM | 102% | – | –
8 | C[C@@H](NC(=O)c1cc(N2CCC(N3CCC[C@H]3CO)CC2)c2ncnn2c1)c1cccc(C(C)(F)F)c1F [Example E72] | 32 nM | 33 nM | 92 nM | 21% | > 50 µM | 98% | – | –
9 | C[C@@H](NC(=O)c1cc([C@]2(O)CC[C@@H](N3CC[C@H](F)C3)CC2)c2ncnn2c1)c1cccc(C(F)(F)F)c1F [Example E71] | 79 nM | 79 nM | 196 nM | 7% | > 50 µM | 94% | – | –
10 | C[C@@H](NC(=O)c1cc(N2CCC(NCC(C)(C)O)CC2)c2ncnn2c1)c1cccc(C(F)(F)F)c1F [Example E50] | 42 nM | 49 nM | 220 nM | 15% | > 50 µM | 83% | – | –
11 | C[C@@H](NC(=O)c1cc(N2CCC(N3CCC[C@H]3CO)CC2)c2ncnn2c1)c1cccc(C(F)F)c1F [Example E6] | 37 nM | 36 nM | 247 nM | 16% | > 50 µM | 102% | – | –
12 | C[C@@H](NC(=O)c1cc(N2CCC(O)(C3CCCN3)CC2)c2ncnn2c1)c1cccc(C(F)F)c1F (single isomer, unassigned) [Example E38a] | 45 nM | 66 nM | 112 nM | 10% | > 50 µM | 94% | – | –
13 | C[C@@H](NC(=O)c1cc(N2CCC(N3CC4CC4(CO)C3)CC2)c2ncnn2c1)c1cccc(C(F)F)c1F (single isomer, unassigned) [Example cis-E21b] | 82 nM | 78 nM | – | 38% | > 50 µM | – | 242 nM | 96%
14 | C[C@@H](NC(=O)c1cc(N2CCC3(CCCN3C)CC2)n2ncnc2c1)c1cccc(C(F)(F)F)c1F [Example E86] | 44 nM | 61 nM | 174 nM | 15% | > 50 µM | 96% | – | –
